# Measurements published in PMC11355700, “Antioxidant and Skin-Whitening Efficacy of a Novel Decapeptide (DP, [sequence]) Derived from Fish By-Products” (Marine Drugs, 2024).
# What was measured:
# [1] = test system: B16F10 melanoma cells; test: Melanin content and morphology in α-MSH-induced B16F10 melanoma cells; assay type: cell-based, mouse; settings: for Melanin content: α-MSH (200 nM) 24 h, α-MSH treated group 152.36%, 405 nm
# Procedure: (§1) B16F10 melanoma cells were obtained from the KCLB and cultured in DMEM medium supplemented with 10% FBS (Gibco BRL, Grand Island, NY, USA) and 1% penicillin. The cells were incubated in a humidified incubator at 37 °C and 5% CO2.
# To measure melanin production in B16F10 cells, cells were seeded in 6-well plates at a density of 5 × 10^4 cells/well. After 24 h, the medium was replaced with fresh medium containing 2% FBS, 200 nM α-MSH, and various concentrations of DP. […] After incubation, the cells were washed with PBS, harvested by centrifugation, and the melanin content was visually inspected. The harvested cells were dissolved in 400 μL of 0.2 N NaOH solution and incubated at 60 °C for 1 h. The absorbance was measured at 405 nm using a microplate reader.
# [2] = ABTS radical scavenging activity; assay type: biochemical; settings: n = 3
# Procedure: The ABTS radical scavenging activity of C. notate head hydrolysate was determined by an adaptation of the ABTS radical cation decolorization assay of Re et al.. A 7 mM ABTS solution and a 2.45 mM potassium persulfate (Sigma Co., Fukushima, Japan) solution were mixed (v/v) to a final concentration and allowed to stand in the dark at room temperature (RT) for 24 h. Afterward, distilled water was added to dilute the solution until the absorbance at 732 nm reached 0.70 (±0.02). Then, 990 μL of this diluted ABTS solution was mixed with 10 μL of the sample solution and incubated at RT for 1 min. The absorbance was measured at 732 nm (Figure 1).
# [3] = test system: tyrosinase; settings: previous research; cited from earlier work
# Description: (§2) This study aims to evaluate the antioxidant and skin-whitening effects of this novel decapeptide (DP) through in vitro and in silico analyses and to establish its potential as a new skin-whitening agent.
# [4] = previous research; cited from earlier work
# Description: as §2
# [5] = test system: HaCaT cells; test: Cell viability (MTT) of H2O2-treated HaCaT cells; assay type: cell-based, human; settings: DP 50, 100, 200 μM with H2O2 500 μM, 24 h, n = 3
# Procedure: (§3) The cell line used in the experiment, the HaCaT cell line, a human keratinocyte, was purchased from the Korea Cell Line Bank (KCLB, Seoul, Republic of Korea). HaCaT cells were cultured in a DMEM medium supplemented with 10% FBS and 1% penicillin–streptomycin. The cells were subcultured every 2 to 3 days in an incubator maintained at 37 °C and 5% CO2.
# To assess the cytotoxicity of DP and H2O2, cells (1 × 10^4 in a 96-well plate) were cultured at 37 °C and 5% CO2 for 24 h. The cultured cells were then treated with DP and H2O2. After 24 h of treatment, 10 μL of MTT (5 mg/mL) solution was added, and the cells were incubated for 4 h. Following this, the supernatant was removed, and 100 μL of DMSO was added to each well. The absorbance was measured at 550 nm using an ELISA reader.
# [6] = test system: MITF mRNA; test: RT-PCR of MITF mRNA in α-MSH-stimulated B16F10 cells; assay type: cell-based, mouse; settings: 0.1, 1, and 10 μM; α-MSH 200 nM; normalized to GAPDH
# Procedure: as §1
# (§4) Total RNA was extracted using the High Pure RNA Isolation Kit (Invitrogen Co., Waltham, MA, USA) according to the manufacturer’s instructions and quantified using a NanoDrop (Thermo Scientific, Waltham, MA, USA). For the reverse transcription reaction, 1 μg of isolated RNA and 1 μL of oligo DT (100 pM) were combined with DEPC to a total volume of 11 μL, followed by the reverse transcription reaction using the RT Premix Kit (Bioneer Co., Daejeon, Republic of Korea) as per the manufacturer’s protocol. PCR for MITF, Tyrosinase, and MC1R genes was conducted using 2 μL of the cDNA products obtained from the reverse transcription reaction, with the PCR Premix Kit (Bioneer Co.) according to the manufacturer’s instructions. The cDNA products amplified by reverse transcription and polymerase chain reaction were analyzed by electrophoresis on 2.0% agarose gels containing ethidium bromide.
# [7] = test system: MC1R mRNA; test: RT-PCR of MC1R mRNA in α-MSH-stimulated B16F10 cells; assay type: cell-based, mouse; settings: 0.1, 1, and 10 μM; α-MSH 200 nM; normalized to GAPDH
# Procedure: as §1, §4
# [8] = test system: mushroom tyrosinase; test: Tyrosinase inhibitory activity (DOPA chrome formation); assay type: biochemical; settings: DL-DOPA substrate, pH 6.8, 37 °C, 10 min, 475 nm
# Procedure: The inhibitory activity of tyrosinase, which is involved in the key steps of melanin synthesis, was measured using a colorimetric method modified from Masamoto et al. by detecting the formation of DOPA chrome as a result of the enzyme’s action. As a substrate, a mixture containing 0.2 mL of 5 mM DL-DOPA solution, 0.2 mL of 0.1 M phosphate buffer (pH 6.8), and 0.5 mL of sample solution was prepared. To this mixture, 0.1 mL of mushroom tyrosinase (Sigma Co., 250 unit/mL) was added and incubated at 37 °C for 10 min. After incubation, the absorbance was measured at a wavelength of 475 nm to calculate the tyrosinase inhibitory activity.
# [9] = Ferric reducing antioxidant power (FRAP); assay type: biochemical; settings: FRAP reagent pH 3.6, 5 min, 37 °C, 593 nm, n = 3
# Procedure: FRAP was measured using the method adapted from Benzie and Strain [46]. The FRAP reagent was prepared by mixing a 300 mM sodium acetate buffer (pH 3.6), a 10 mM 2,4,6-tripyridyl-s-triazine (TPTZ) solution dissolved in 40 mM HCl, and a 20 mM FeCl3 solution in a 10:1:1 ratio just before the experiment. A 10 μL sample of each concentration was mixed with 200 μL of FRAP reagent, incubated for 5 min at 37 °C, and then the absorbance was measured at 593 nm using a Microplate Spectrophotometer (xMarkTM, BIO-RAD, Hercules, CA, USA). The FRAP value of the sample was determined by applying the absorbance values to a standard calibration curve prepared with 0–5 mM FeSO4·H2O, and the results were expressed as FeSO4 equivalent mM/μM.
# [10] = test system: tyrosinase mRNA; test: RT-PCR of tyrosinase mRNA in α-MSH-stimulated B16F10 cells; assay type: cell-based, mouse; settings: 0.1, 1, and 10 μM; α-MSH 200 nM; normalized to GAPDH
# Procedure: as §1, §4
# [11] = test system: B16F10 melanoma cells; test: Cytotoxicity (MTT) in B16F10 melanoma cells; assay type: cell-based, mouse; settings: 12.5, 50, and 100 μM, 24 h
# Procedure: as §1
# To determine the cytotoxicity of DP and establish the concentration range for the experiment, an MTT assay was conducted. Cells were seeded in 96-well plates at a density of 1.0 × 10^4 cells/well. After 24 h, once the cells were fully attached, the medium was replaced with fresh medium containing 200 nM α-MSH and various concentrations of DP. After another 24 h of incubation, an MTT assay was performed.
# [12] = test system: HaCaT cells; test: ROS generation (DCFH-DA) in H2O2-treated HaCaT cells; assay type: cell-based, human; settings: DP 50, 100, 200 μM; H2O2 500 μM, 24 h; DCFH-DA 25 μM, 30 min; n = 3
# Procedure: as §3
# HaCaT cells were seeded at 1 × 10^4 cells per well in a 96-well black plate and cultured for 24 h. The cultured cells were treated with DP at concentrations of 50, 100, and 200 μM and then exposed to 500 μM H2O2 for 24 h to induce ROS generation. After H2O2 treatment, the cells were stained with 25 μM dichlorodihydro-fluorescein diacetate (DCFH-DA) for 30 min. The fluorescence intensity corresponding to intracellular ROS production was measured using a fluorescent spectrophotometer at an excitation wavelength of 485 nm and an emission wavelength of 530 nm. The results were expressed as ROS production (%) relative to the fluorescence measurement value of the untreated control, which was set to 100.
sequence,measurement,setting,value
KGYSSYICDK [DP],Melanin content,[1]; 0.1 μM,120.32%
same,Melanin content,[1]; 1 μM,105.24%
same,Melanin content,[1]; 10 μM,83.21%
same,"Melanin formation, morphological observation","[1]; starting from 0.1 μM, α-MSH 200 nM, 200× magnification",melanin formation was inhibited starting from the 0.1 μM concentration
same,"ABTS radical scavenging, concentration dependence",[2]; 732 nm,concentration-dependent ABTS radical scavenging activity
same,ABTS radical scavenging,"[2]; concentrations above 20 μM, 732 nm",over 90%
same,ABTS radical scavenging vs Vit. C,"[2]; concentrations above 20 μM, p < 0.05",significantly outperforming Vit. C
same,Tyrosinase inhibitory activity,[3],tyrosinase inhibitory activities
same,Free radical scavenging activity,[4],free radical scavenging
same,Cell viability of H2O2-treated HaCaT cells,[5],enhanced cell viability in a dose-dependent manner
same,MITF mRNA level,[6],dose-dependent and significant decrease
same,MC1R mRNA level,[7],dose-dependent and significant decrease
same,Tyrosinase inhibitory activity,[8]; 62.5 μM,7.05%
same,Tyrosinase inhibitory activity,[8]; 125 μM,19.62%
same,Tyrosinase inhibitory activity,[8]; 250 μM,26.29%
same,Tyrosinase inhibitory activity,[8]; 500 μM,62.67%
same,Tyrosinase inhibitory activity,[8]; 1000 μM,84.38%
same,FRAP activity vs Vitamin C,"[9]; 1000 μM, p < 0.05","significant activity at 1000 μM, comparable to Vitamin C"
same,"FRAP activity, concentration dependence",[9]; FeSO4 equivalents,dose-dependent FRAP activity
same,Tyrosinase mRNA level,[10],dose-dependent and significant decrease
same,Cytotoxicity in B16F10 melanoma cells,[11],No cytotoxicity was observed
same,ROS levels in H2O2-treated HaCaT cells,[12],significantly reduced
